In one assay the test system is IPOHE. The experiment in a line: Pre-emergence soil-applied weed control, greenhouse (Example III). Type of assay: in vivo, Ipomoea hederacea (L.) Jacq. From the text: Evaluation of Pre-emergence Soil-Applied Herbicidal Mixtures for Weed Control
Seeds or nutlets of the desired test plant species were planted in a soil matrix prepared by mixing a loam soil (32 percent silt, 23 percent clay, and 45 percent sand, with a pH of about 6.5 and an organic matter content of about 1.9 percent) and calcareous grit in an 80 to 20 ratio. The soil matrix was contained in plastic pots with a volume of 1 quart and a surface area of 83.6 square centimeters (cm^2).
Treatments consisted of the benzyl ester of 4-amino-3-chloro-5-fluoro-6-(4-chloro-2-fluoro-3-methoxy-phenyl)pyridine-2-carboxylic acid (compound A) formulated as an SC (suspension concentrate) and various herbicidal components alone and in combination. Forms of compound A were applied on an acid equivalent basis.
Other herbicidal components were applied on an acid equivalent or active ingredient basis and included the 4-hydroxyphenyl pyruvate dioxygenase (HPPD)-inhibiting herbicide, isoxaflutole, formulated as Balance Pro®.
Treatment requirements were calculated based upon the rates being tested, the concentration of active ingredient or acid equivalent in the formulation, and a 12 mL application volume at a rate of 187 L/ha.
For treatments comprised of formulated compounds, measured amounts of compounds were placed individually in 25 mL glass vials and diluted in a volume of 1.25% (v/v) Agri-Dex® crop oil concentrate (COC) to obtain 12× stock solutions. […] Application solutions were prepared by adding an appropriate amount of each stock solution (e.g., 1 mL) and diluted to the appropriate final concentrations with the addition of 10 mL of an aqueous mixture of 1.25% (v/v) COC so that the final spray solutions contained 1.25% (v/v) COC.
All stock solutions and applications solutions were visually inspected for compound compatibility prior to application. Spray solutions were applied to the soil with an overhead Mandel track sprayer equipped with a 8002E nozzles calibrated to deliver 187 L/ha over an application area of 0.503 m^2 at a spray height of 18 inches (46 cm) above average pot height. Control pots were sprayed in the same manner with the solvent blank.
The treated and control pots were placed in a greenhouse and top watered as needed. When required to ensure good germination and healthy plants, a fungicide treatment and/or other chemical or physical treatment was applied. […] After approximately 4 weeks, the condition of the test plants as compared with that of the untreated plants was determined visually and scored on a scale of 0 to 100 percent where 0 corresponds to no injury or growth inhibition and 100 corresponds to complete kill. […]

Another assay has as its system ECHCO. The experiment in a line: In-water applied weed control, transplanted paddy rice, greenhouse (Example II). Type of assay: in vivo, Echinochloa colona (L.) Link. On the procedure:
Evaluation of in-Water Applied Herbicidal Mixtures for Weed Control in Transplanted Paddy Rice
Weed seeds or nutlets of the desired test plant species were planted in puddled soil (mud) prepared by mixing a shredded, non-sterilized mineral soil (50.5 percent silt, 25.5 percent clay, and 24 percent sand, with a pH of about 7.6 and an organic matter content of about 2.9 percent) and water at a 1:1 volumetric ratio. The prepared mud was dispensed in 365 mL aliquots into 16-ounce (oz.) non-perforated plastic pots with a surface area of 86.59 square centimeters (cm^2) leaving a headspace of 3 centimeters (cm) in each pot. Mud was allowed to dry overnight prior to planting or transplanting. Rice seeds were planted in Sun Gro MetroMix® 306 planting mixture, which typically has a pH of 6.0 to 6.8 and an organic matter content of about 30 percent, in plastic plug trays. Seedlings at the second or third leaf stage of growth were transplanted into 840 mL of mud contained in 32-oz. non-perforated plastic pots with a surface area of 86.59 cm^2 4 days prior to herbicide application. The paddy was created by filling the headspace of the pots with 2.5 to 3 cm of water. When required to ensure good germination and healthy plants, a fungicide treatment and/or other chemical or physical treatment was applied. The plants were grown for 4-22 days in a greenhouse with an approximate 14 h photoperiod which was maintained at about 29′C during the day and 26° C. during the night. Nutrients were added as Osmocote® (19:6:12, N:P:K+ minor nutrients) at 2 g per 16-oz. pot and 4 g per 32-oz. pot. Water was added on a regular basis to maintain the paddy flood, and supplemental lighting was provided with overhead metal halide 1000-Watt lamps as necessary. The plants were employed for testing when they reached the first through fourth true leaf stage.
Treatments consisted of the acid or esters of 4-amino-3-chloro-5-fluoro-6-(4-chloro-2-fluoro-3-methoxy-phenyl)pyridine-2-carboxylic acid (compound A) each formulated as an SC (suspension concentrate) and various herbicidal components alone and in combination. Forms of compound A were applied on an acid equivalent basis. […]
Treatment requirements for each compound or herbicidal component were calculated based upon the rates being tested, the concentration of active ingredient or acid equivalent in the formulation, an application volume of 2 mL per component per pot, and an application area of 86.59 cm^2 per pot.
For formulated compounds, a measured amount was placed in an individual 100 or 200 mL glass vial and was dissolved in a volume of 1.25% (v/v) Agri-Dex® crop oil concentrate to obtain application solutions. […]

Take `COc1c(Cl)ccc(-c2nc(C(=O)OCc3ccccc3)c(Cl)c(N)c2F)c1F` [Compound A Benzyl Ester, benzyl ester of 4-amino-3-chloro-5-fluoro-6-(4-chloro-2-fluoro-3-methoxy-phenyl)pyridine-2-carboxylic acid]: the “Visual Weed Control (%) - 32 DAA IPOHE Obs” value in the assay with IPOHE (8 gae/ha) stood at 5%; in the assay on IPOHE (16 gae/ha), 10%; in the assay on IPOHE (32 gae/ha), 10%.

As to `COc1c(Cl)ccc(-c2nc(C(=O)O)c(Cl)c(N)c2F)c1F` [Compound A Acid, 4-amino-3-chloro-6-(4-chloro-2-fluoro-3-methoxyphenyl)-5-fluoropyridine-2-carboxylic acid], the “Visual Weed Control (%) - 21 DAA ECHCO Obs” value in the assay with ECHCO (8.75 gae/ha) turned out to be 0%; in the assay on ECHCO (17.5 gae/ha) it was 20%.

These data come from patent US8841233B2, “Herbicidal compositions comprising 4-amino-3-chloro-5-fluoro-6-(4-chloro-2-fluoro-3-methoxyphenyl) pyridine-2-carboxylic acid or a derivative thereof and 4-hydroxyphenyl-pyruvate dioxygenase (HPPD) inhibitors” (Dow Agrosciences LLC, priority 2012, dated 2014).
